Measured values from US6696433B2, “Use of sex steroids function modulators to treat wounds and fibrotic disorders” (Renovo Limited, priority 1996, dated 2004).
Marks after values point to notes of the source that are not given here.

Legend:
[1] = test system: 4 mm punch biopsy wounds of the upper inner arm; experiment: Topical oestrogen patch clinical trial of wound healing in elderly men and women; type: in vivo, human; parameters: key to Collagen Quantities: +=minimal quantities; ++=less than normal skin; +++=similar to normal skin; ++++=greater than normal skin; conditions: for Collagen Quantities: oestradiol patch, DAY 80
[2] = test system: 4 mm punch biopsy wounds of the upper inner arm; experiment: as above; type: in vivo, human; parameters: key to Collagen Quantities: +=minimal quantities; ++=less than normal skin; +++=similar to normal skin; ++++=greater than normal skin; conditions: for Collagen Quantities: oestradiol patch, DAY 7; for % Rate of re-epithelialisation / Wound area: day 7 post-wounding; for scarring, microscopically and macroscopically (FIGS. 7 and 8): scored as in 2.1.4.2
Procedure: Approval for this study was given by the local Ethics Committee. Forty health-status defined volunteers split into four groups: (i) GROUP 3A comprised ten women with mean age 76.3 yr (Sd 5.6) who received oestrogen supplements (25 μg/24 hrs of oestradiol) (ii) GROUP 3B comprised ten women with mean age 72.5 yr (Sd 7.1) who received placebo instead of oestrogen. (iii) GROUP 3C comprised ten men with mean age 69.6 yr (Sd 3.6) who received oestrogen supplements (ii) GROUP 3D comprised ten men with mean age 71.8 yr (Sd 8.9) who received placebo instead of oestrogen. After informed consent subjects from each of Groups 3A, 3B, 3C and 3D underwent two 4 mm punch biopsies from the upper inner arm (a non sun-exposed site) following local infiltration with 1 ml 1% lignocaine. Each biopsy of normal skin was bisected and one-half embedded in Optimal Cutting Temperature compound (Miles Inc. Elkhart, Ind.), frozen over liquid nitrogen, and stored at −70° C., and one-half snap-frozen in liquid nitrogen and stored at −70° C. The area for biopsy was covered by a 2×3 cm patch (placebo Groups 3B and 3D or active oestradiol 3A and 3C) through which the biopsies were made. The patch was covered by a Multisorb dry gauze dressing (Smith & Nephew) and both were removed after 24 hrs. The active patches contained sufficient oestradiol such that the wound sites were exposed to 25 μg/24 hrs of oestradiol. Five subjects from Groups 3A, 3B, 3C and 3D underwent re-excision of the wounds at day 7 post-wounding, and the other five subjects from each group at day 84 post-wounding. The left upper inner arm was cleaned with isopropyl alcohol, elliptical excisions of the wounds were made following 1% lignocaine infiltration and two sutures were used to close the gap. Each wound was bisected and processed as described above (3.1.3). 7 μm paraffin-embedded sections were strained with H&E and Masson's Trichrome. The rate of re-epithelialisation (at day 7 post-wounding), and wound sizes as determined by planimetry, were determined with image analysis using an Olympus Vanox camera and PC image capture system. Collagen quantity within the wound was determined by two observers blinded to the identity of the specimen on the following scale +=minimal quantities; ++=less than normal skin; +++=similar to normal skin; ++++=greater than normal skin. The wound stiffness at day 80 was determined using the non-disruptive Dimensional Analysis System (Das). Previous studies have correlated wound breaking strength values (ultimate pressure at failure) to wound stiffness using this system. The system applies a multiaxial load (negative pressure) to the wound and measures the deformation due to the load of two reflective targets placed at the wound edges, using a high resolution camera and video processor. Pressure was applied to a maximum of 100 mmHg and then released, Stiffness was measured between 20 and 80 mmHg.

[3] = test system: full thickness incisional wounds; experiment: Incisional wound healing in OVX and sham rats, histology at day 7 post-wounding; type: in vivo, Female Sprague Dawley rats; conditions: day 7 wound from an intact female rat treated with oestrogen
elastase = experiment: Wound elastase activity: fibronectin zymography, immunoblotting and elastase substrate degradation; type: in vivo, human; conditions: day 7 wounds compared to placebo
Procedure: Proteases responsible for fibronectin degradation were identified by zymography using fibronectin-containing acrylamide gels (12% acrylamide and 0.33 mg/ml fibronectin, Central Blood Products Ltd). Tissue samples were lyophilized and homogenized using a ground glass homogenizer containing 0.5 ml buffer (100 mM Tris/HCl, 6M Urea, 15 mM CaCl2, 0.25% Triton-X100, pH 7.4). After centrifugation at 11,000 rpm for 10 min at 4° C. samples (20 μg dry wt) were incubated for 30 min at 37° C. with 2× Laemmli sample buffer and subjected to electrophoresis under non-reducing conditions (Laemmli, 1970). After electrophoresis, the gels were washed twice with 2.5% Triton-X100 for 1 hr to remove SDS. The gels were briefly washed with double distilled water and incubated for 18 h at 37° C. in developing buffer containing 50 mM Tris/HCl, 150 mM NaCl and 5 mM CaCl2, pH 7.4. At the end of incubation the gels were stained with 0.5% Coomassie brilliant blue and destained. […]
Tissue samples (20 μg dry wt) and human neutrophil elastase (0.01-0.3 μg/ml) were incubated for up to 1 h at 37° C. in 200 μl of 0.1M Hepes buffer, pH 7.5, containing 0.5M NaCl, 10% dimethylsulfoxide and 0.1 mM elastase substrate (methoxysuccinyl-ala-ala-pro-val-p-nitroanilide; Calibiochem Co;). Substrate degradation was determined by measuring OD410 (Dynatech MR5000). […] Results were expressed as ng/ml elastase activity/20 μg dry wt.

[4] = FEMALES (3A), patch 25 μg/24 hrs of oestradiol for 24 hrs
[5] = MALES (3C), patch 25 μg/24 hrs of oestradiol for 24 hrs

Row | SMILES | Collagen Quantities ([1]; FEMALES (3A)) | Collagen Quantities ([1]; MALES (3C)) | Collagen levels ([1]; day 7 and day 80 post-wounding, both sexes (3A and 3C) compared to placebo) | Collagen Quantities ([2]; FEMALES (3A)) | % Rate of re-epithelialisation [2, 4] | Wound area [2, 4] | Collagen Quantities ([2]; MALES (3C)) | % Rate of re-epithelialisation [2, 5] | Wound area [2, 5] | Wound area ([2]; oestrogen treatment, p<0.05) | Wound stiffness (Dimensional Analysis System) ([2]; day 80 post-wounding) | rate of re-epithelialization ([2]; female (3A) and male subjects (3C) relative to placebo controls) | scarring, microscopically and macroscopically (FIGS. 7 and 8) [2] | wound healing in stained sections (FIG. 1 c) [3] | elastase activity (synthetic elastase substrate degradation assay) (elastase)
1 | C[C@]12CC[C@@H]3c4ccc(O)cc4CC[C@H]3[C@@H]1CC[C@@H]2O [Oestrogen] | ++++ | ++++ | consistently increased | ++ | 74.5 (10.5)* % | 1204 (49)* | ++ | 62.5 (21.7) % | 1173 (61)* | significantly reduced | not affected | accelerated | inferior quality of wound | improved wound healing | significantly reduced
2 | CC(=O)[C@H]1CC[C@H]2[C@@H]3CCC4=CC(=O)CC[C@]4(C)[C@H]3CC[C@]12C [Progesterone, progesterone] | – | – | – | – | – | – | – | – | – | – | – | – | superior scaring | – | –
